Laboratory results reported in patent US4734409A, “Cephalosporin derivative, process for producing the same and pharmaceutical composition containing the same” (Kureha Kagaku Kogyo Kabushiki Kaisha, priority 1984, dated 1988).

Legend:
[1] = tested on: Proteus vulgaris IAM 1025; experiment: Antibacterial activity, agar plate dilution method: P. vulgaris IAM 1025; assay type: cell-based; settings: Mueller-Hinton agar, 10^6 cells/ml, 37° C., 18 to 24 hours
Description: (§1) Antibacterial activity of the present compound was examined by agar plate dilution method while following the standard method of Japan Society of Chemotherapy and using the following strain: 4. Proteus vulgaris IAM 1025 Namely, after inoculating each bacteria on Mueller-Hinton culture medium, the inoculum was incubated for 18 to 48 hours at 37° C. and after adjusting the number of cells of each bacteria so as to contain 10^6 in one ml, the thus prepared specimen was used as the test bacterial liquid. Each of the present substances (the substance in Example 1 and the substance in Example 2) was dispersed in aqueous physiological saline solution at a predetermined concentration and the thus prepared dispersion was added to 9 times by volume of the culture medium for examining sensitivity (Mueller-Hinton culture medium) to prepare agar plates. On each agar plate, each of the test bacterial liquid was smeared at a width of about 2 cm, and the thus smeared agar plate was incubated for 18 to 24 hours at 37° C.

[2] = tested on: Escherichia coli IFO 12734; experiment: Antibacterial activity, agar plate dilution method: E. coli IFO 12734; assay type: cell-based; settings: Mueller-Hinton agar, 10^6 cells/ml, 37° C., 18 to 24 hours
Description: as §1, with “1. Escherichia coli IFO 12734” for “4. Proteus vulgaris IAM 1025”

[3] = tested on: Pseudomonas aeruginosa IAM 1514; experiment: Antibacterial activity, agar plate dilution method: P. aeruginosa IAM 1514; assay type: cell-based; settings: Mueller-Hinton agar, 10^6 cells/ml, 37° C., 18 to 24 hours
Description: as §1, with “5. Pseudomonas aeruginosa” for “4. Proteus vulgaris”, “1514” for “1025”

[4] = tested on: Escherichia coli IFO 12734; experiment: Therapeutic effect on the experimental infectious disease on mice; assay type: in vivo, Escherichia coli (infected ddY-SPF mice)
Excerpt: Therapeutic effect of the present compounds on the infection was examined as follows.

Escherichia coli W 3636 = experiment: Antibacterial activity, agar plate dilution method: E. coli W 3636; assay type: cell-based; settings: Mueller-Hinton agar, 10^6 cells/ml, 37° C., 18 to 24 hours
Description: (§2) Antibacterial activity of the present compound was examined by agar plate dilution method while following the standard method of Japan Society of Chemotherapy and using the following strain:
(§3) 3. Escherichia coli W 3636
(§4) Namely, after inoculating each bacteria on Mueller-Hinton culture medium, the inoculum was incubated for 18 to 48 hours at 37° C. and after adjusting the number of cells of each bacteria so as to contain 10^6 in one ml, the thus prepared specimen was used as the test bacterial liquid.
(§5) Each of the present substances (the substance in Example 1 and the substance in Example 2) was dispersed in aqueous physiological saline solution at a predetermined concentration and the thus prepared dispersion was added to 9 times by volume of the culture medium for examining sensitivity (Mueller-Hinton culture medium) to prepare agar plates.
(§6) On each agar plate, each of the test bacterial liquid was smeared at a width of about 2 cm, and the thus smeared agar plate was incubated for 18 to 24 hours at 37° C.

[5] = tested on: bacteria (strains of Table 3); experiment: Antibacterial activity, agar plate dilution method, overall; assay type: cell-based; settings: as seen from Table 3
Description: as §2
2. Staphylococcus aureus IAM 1011
as §3
4. Proteus vulgaris IAM 1025
5. Pseudomonas aeruginosa IAM 1514
6. Serratia marcescens IAM 1223
as §4, §5, §6

[6] = tested on: Staphylcoccus aureus IAM 1011; experiment: Activation by rat liver homogenate (S-9 mix), penicillin cup proliferation-inhibiting circle; assay type: cell-based, Staphylococcus aureus; settings: 20 min at 37° C., inhibiting circle diameter as % of that of the starting compound; for Degree of activation, Before adding S-9 mix: phosphoric acid buffer control; for Degree of activation, After adding S-9 mix: rat liver S-9 mix
Description: As an enzyme for activating metabolism of the present compound, rat liver homogenate (S-9, manufactured by Oriental Yeast Co., Ltd.) was used in preparing the following mixture (hereinafter referred to as S-9 mix).
Composition of S-9 mix (amount in one ml of S-9 mix)
A test solution of present compound was prepared by mixing 0.1 ml of a dispersion of the present compound and 0.9 ml of the thus prepared S-9 mix and shaking the thus prepared mixture for 20 min at 37° C. As a control, a mixture was prepared by mixing 0.1 ml of the dispersion of the present compound and 0.9 ml of the 0.2M phosphoric acid buffer and shaking the mixture for 20 min at 37° C.
As the test bacteria, Staphylcoccus aureus IAM 1011 was inoculated in Mueller-Hinton culture medium and after incubating the inoculum for 18 hours at 37° C., the number of the bacteria was adjusted to 10^8 /ml and the bacterial preparation was mixed with 50 times by volume of Mueller-Hinton culture medium, and an agar plate was prepared from the mixture.
After placing a penicillin cup of 8 mm in diameter on the thus prepared agar plate, 0.1 ml of the test solution of present compound prepared above was put into the cup, and after leaving the agar plate for 2 hours at 4° C., the agar plate was subjected to culture for 18 hours at 37° C. and the diameter of a proliferation-inhibiting circle appearing on the agar plate was measured.
The same procedures were carried out except for using 7β-[2-(2-amino-4-thiazolyl)-(Z)-2-methoxyiminoacetamido]-3-[(2-methyl-1,3,4-thiadiazol-5-yl)thiomethyl]-3-cephem-4-carboxylic acid used as a starting compound for producing the present compound in Example 1 instead of the present compound.
The percentage of the diameter of a proliferation-inhibiting circle due to the present compound to that due to the starting compound mentioned above was obtained, and from the following standards, the degree of activation was obtained.

Row | Compound | minimal inhibitory concentration (MIC), Pro. vulgaris IAM 1025 [1] | minimal inhibitory concentration (MIC), E. coli IFO 12734 [2] | minimal inhibitory concentration (MIC), P. aeruginosa IAM 1514 [3] | survival 7 days after inoculation ([4]; intravenous administration, dose not given) | minimal inhibitory concentration (MIC), E. coli W 3636 (Escherichia coli W 3636) | antibacterial activity (in words) [5] | Degree of activation, Before adding S-9 mix [6] | Degree of activation, After adding S-9 mix [6] | survival 7 days after inoculation ([4]; 25 mg/kg orally, 1 time, 1 hour after intraperitoneal inoculation of 1.4×10^3 cells, all untreated mice died on the second day)
1 | CO/N=C(\C(=O)N[C@@H]1C(=O)N2C(C(=O)O)=C(CSc3nnc(C)s3)CS[C@H]12)c1csc(NC(=O)C(Cl)Cl)n1 [Example 1, 7β-[2-(2-dichloroacetamido-4-thiazolyl)-(Z)-2-methoxyiminoacetamido]-3-[(2-methyl-1,3,4-thiadiazol-5-yl)thiomethyl]-3-cephem-4-carboxylic acid] | 0.05 | 0.1 | 50 | All the ddY-SPF mice administered with the present compound produced in Example 1 via intravenation survived | 0.4 | shows an antibacterial activity | ++++ (100 to 150%) | ++++ (100 to 150%) | 
2 | CO/N=C(\C(=O)N[C@@H]1C(=O)N2C(C(=O)OCOC(=O)C(C)(C)C)=C(CSc3nnc(C)s3)CS[C@H]12)c1csc(NC(=O)C(Cl)Cl)n1 [Example 2] | 50 | 50 | ≥ 100 |  | ≥ 100 | shows a low antibacterial activity | ± (0 to 1%) | ++++ (100 to 150%) | all the mice administered with the present compound survived
